# Experimental data reported in patent publication US8586591B2, “Aminopyrazine derivative and medicine” (Nippon Shinyaku Co., Ltd., priority 2009, dated 2013).
# Counter-ions that a name gives are not always drawn.
# Target: T1, JAK3 tyrosine kinase (Homo sapiens, UniProt P52333)
# T1 construct: purchased Carnabioscience Co
# T1 sequence (P52333 1-1124): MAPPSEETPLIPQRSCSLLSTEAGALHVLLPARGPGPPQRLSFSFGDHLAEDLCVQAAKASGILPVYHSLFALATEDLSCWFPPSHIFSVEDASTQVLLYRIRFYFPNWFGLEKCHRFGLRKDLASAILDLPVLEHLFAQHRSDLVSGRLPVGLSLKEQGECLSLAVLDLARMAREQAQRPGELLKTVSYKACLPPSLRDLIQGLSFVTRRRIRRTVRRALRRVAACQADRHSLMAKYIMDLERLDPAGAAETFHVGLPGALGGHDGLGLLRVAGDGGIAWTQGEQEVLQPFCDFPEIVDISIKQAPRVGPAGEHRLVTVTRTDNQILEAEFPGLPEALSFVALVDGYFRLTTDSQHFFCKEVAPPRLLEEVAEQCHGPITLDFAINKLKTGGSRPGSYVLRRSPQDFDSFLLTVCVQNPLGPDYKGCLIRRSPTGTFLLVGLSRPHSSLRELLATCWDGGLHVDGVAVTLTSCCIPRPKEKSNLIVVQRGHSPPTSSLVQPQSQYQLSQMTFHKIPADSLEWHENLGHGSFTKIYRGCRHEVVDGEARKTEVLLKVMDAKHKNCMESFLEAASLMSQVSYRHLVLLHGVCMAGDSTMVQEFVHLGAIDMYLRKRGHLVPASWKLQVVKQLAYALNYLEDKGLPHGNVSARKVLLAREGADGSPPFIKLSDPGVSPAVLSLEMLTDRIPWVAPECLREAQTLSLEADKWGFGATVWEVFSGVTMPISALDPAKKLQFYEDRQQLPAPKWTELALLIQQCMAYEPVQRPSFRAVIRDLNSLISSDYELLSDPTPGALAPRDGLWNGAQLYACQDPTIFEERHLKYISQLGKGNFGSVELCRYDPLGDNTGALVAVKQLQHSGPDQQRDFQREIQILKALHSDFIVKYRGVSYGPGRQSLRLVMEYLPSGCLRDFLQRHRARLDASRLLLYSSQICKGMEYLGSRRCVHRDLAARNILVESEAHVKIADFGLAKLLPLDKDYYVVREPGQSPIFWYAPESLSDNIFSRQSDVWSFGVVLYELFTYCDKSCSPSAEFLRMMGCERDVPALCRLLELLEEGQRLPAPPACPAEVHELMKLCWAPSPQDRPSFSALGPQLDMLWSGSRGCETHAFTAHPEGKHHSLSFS
# Assay: Test 1: inhibitory activity to JAK3 tyrosine kinase (ELISA)
# Type: biochemical
# Conditions: 25 μM ATP in substrate solution, 30° C. for 1 hour, n=2
# Method: Test 1: Test for inhibitory activity to JAK2 and JAK3 tyrosine kinase 1. […] The test material was dissolved in dimethylsulfoxide (DMSO) to be 10 mM, and further diluted with DMSO to be 100-fold concentrations for measurement (1000, 300, 100, 30, 10, 3, 1, 0.3, 0.1, 0.03, 0.01 μM). In addition, solutions diluted with an assay buffer up to 20 times were used as solutions of the test material. As a negative control, a solution of DMSO diluted 20 times with an assay buffer was used. […] 2. Measurement of the Activities of JAK2 and JAK3 Tyrosine Kinases The activity was determined by ELISA. […] The absorbance was measured by means of a micro-plate reader (BIO-RAD; Model 3550) at 450 nm. 3. Analysis of the Results of the Measurement The measured absorbance was subjected to a non-linear regression analysis by means of a SAS system (SAS Institute Inc.), and the concentration (IC50) of the test material which inhibited 50% of the activity of each tyrosine kinase was estimated.
row,SMILES,IC50 [nM]
1,"C[C@H](Nc1nc(Nc2cnccn2)cc(N2CC[C@H]2C(N)=O)n1)c1ccc(F)cc1 [Example 156, (S)-1-{2-[(S)-1-(4-Fluorophenyl)ethylamino]-6-(pyrazin-2-ylamino)pyrimidin-4-yl}azetidine-2-carboxamide]",580
2,"C[C@H](Nc1cc(C(=O)N2CCOCC2)cc(Nc2cnccn2)n1)c1ccc(F)cc1 [Example 161, (S)-{2-[1-(4-Fluorophenyl)ethylamino]-6-(pyrazin-2-ylamino)pyridin-4-yl}(morpholino)methanone]",230
3,"C[C@H](Nc1cc(C(=O)NCc2ccccc2)cc(Nc2cnccn2)n1)c1ccc(F)cc1 [Example 162, (S)—N-Benzyl-2-[1-(4-fluorophenyl)ethylamino]-6-(pyrazin-2-ylamino)isonicotinamide hydrochloride]",370
4,"C[C@H](Nc1cc(C(=O)NC2CC2)cc(Nc2cnccn2)n1)c1ccc(F)cc1 [Example 163, (S)—N-Cyclopropyl-2-[1-(4-fluorophenyl)ethylamino]-6-(pyrazin-2-ylamino)isonicotinamide]",170
5,"C[C@H](Nc1cc(C(=O)N2CCN(C)CC2)cc(Nc2cnccn2)n1)c1ccc(F)cc1 [Example 164, (S)-{2-[1-(4-Fluorophenyl)ethylamino]-6-(pyrazin-2-ylamino)pyridin-4-yl}(4-methylpiperazin-1-yl)methanone hydrochloride]",470
6,"COCCNC(=O)c1cc(Nc2cnccn2)nc(N[C@@H](C)c2ccc(F)cc2)c1 [Example 165, (S)-2-[1-(4-Fluorophenyl)ethylamino]-N-(2-methoxyethyl)-6-(pyrazin-2-ylamino)isonicotinamide]",360

# More lines, in order of falling IC50, values ahead:
row,IC50 [nM],SMILES
1,170,"C[C@H](Nc1cc(C(=O)NCCO)cc(Nc2cnccn2)n1)c1ccc(F)cc1 [Example 159, (S)-2-[1-(4-Fluorophenyl)ethylamino]-N-(2-hydroxyethyl)-6-(pyrazin-2-ylamino)isonicotinamide]"
2,150,"C[C@H](Nc1cc(OC2CCOCC2)cc(Nc2cnccn2)n1)c1ccc(F)cc1 [Example 157, (S)—N^2-[1-(4-Fluorophenyl)ethyl]-N^6-(pyrazin-2-yl)-4-(tetrahydro-2H-pyran-4-yloxy)pyridine-2,6-diamine hydrochloride]"
3,100,"CNC(=O)c1cc(Nc2cnccn2)nc(N[C@@H](C)c2ccc(F)cc2)c1 [Example 160, (S)-2-[1-(4-Fluorophenyl)ethylamino]-N-methyl-6-(pyrazin-2-ylamino)isonicotinamide]"
4,39,"C[C@H](Nc1nc(Nc2cnccn2)cc(N2CC(C(N)=O)C2)n1)c1ccc(F)cc1 [Example 158, (S)-1-{2-[1-(4-Fluorophenyl)ethylamino]-6-(pyrazin-2-ylamino)pyrimidin-4-yl}azetidine-3-carboxamide]"
